A word on the IC50: it is the concentration at which inhibition is half-maximal.

Numbered stars: 1 amine (or outer) side, 2 acyl side, 3 side chain; on linkers, the order of the positions; unused ones are H or OH. Square brackets hold non-standard residues; d marks the D form. Side chains are listed from the residue outwards. Peptide text beside a SMILES is read from it. * marks the point of attachment. C18 diacid = O=C(O)CCCCCCCCCCCCCCCCC(=O)*; γGlu = O=C(O)[C@H](CCC(=O)[*:2])N[*:1]; Ac4c = NC1(C(=O)O)CCC1; AEEA = NCCOCCOCC(=O)O; Aib = CC(C)(N)C(=O)O

The target of this test is T1, human glucagon receptor (Homo sapiens, UniProt P47871).
T1 construct: expressed in transfected cells; host or cells: BHK cells (parent BHK570, CRE luciferase clone BHK/KZ10-20-48), clone pLJ6'-4-25
T1 sequence (P47871 26-477): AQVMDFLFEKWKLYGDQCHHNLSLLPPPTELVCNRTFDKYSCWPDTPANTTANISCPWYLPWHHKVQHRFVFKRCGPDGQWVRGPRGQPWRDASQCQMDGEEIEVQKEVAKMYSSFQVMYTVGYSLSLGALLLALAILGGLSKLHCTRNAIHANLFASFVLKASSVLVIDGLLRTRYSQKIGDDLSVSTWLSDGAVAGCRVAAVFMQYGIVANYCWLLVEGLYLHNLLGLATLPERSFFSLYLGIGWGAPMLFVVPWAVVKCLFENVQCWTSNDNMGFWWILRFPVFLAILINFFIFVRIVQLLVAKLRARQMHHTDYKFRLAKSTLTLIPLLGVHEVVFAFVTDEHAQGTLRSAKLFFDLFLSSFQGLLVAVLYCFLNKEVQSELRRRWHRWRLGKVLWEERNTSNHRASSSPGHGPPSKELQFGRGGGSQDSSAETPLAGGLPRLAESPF
In words: Glucagon receptor binding, 125I-glucagon displacement SPA on isolated membranes. Particulars: displacement of 125I-glucagon from membranes; read-out: IC50 GlucR. Put shortly: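 Membranes from BHK cells stably expressing human glucagon receptor incubated 2 h at 25 °C with [125I]-glucagon (25 μl of 480 pM solution) and serial compound dilutions in WGA SPA format, pH 7.4 buffer with 0.1% ovalbumin. Albumin at max 0.001% or 0.2% final. IC50 from non-linear regression.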
Take `CC(C)C[C@H](NC(=O)[C@H](Cc1ccc(O)cc1)NC(=O)[C@H](CCCCN)NC(=O)[C@H](CO)NC(=O)[C@H](CC(C)C)NC(=O)[C@H](CC(=O)O)NC(=O)[C@H](CO)NC(=O)[C@@H](NC(=O)[C@H](Cc1ccccc1)NC(=O)[C@@H](NC(=O)CNC(=O)[C@H](CCC(N)=O)NC(=O)C(C)(C)NC(=O)[C@@H](N)Cc1c[nH]cn1)[C@@H](C)O)[C@@H](C)O)C(=O)N[C@@H](CCC(=O)O)C(=O)N[C@@H](CO)C(=O)N[C@@H](CCCNC(=N)N)C(=O)N[C@@H](CCCNC(=N)N)C(=O)N[C@@H](C)C(=O)N[C@@H](CCCNC(=N)N)C(=O)N[C@@H](CCC(=O)O)C(=O)N[C@@H](Cc1ccccc1)C(=O)N[C@H](C(=O)N[C@@H](CCC(N)=O)C(=O)N[C@@H](Cc1c[nH]c2ccccc12)C(=O)N[C@@H](CC(C)C)C(=O)N[C@@H](CC(C)C)C(=O)N[C@@H](CCCCNC(=O)COCCOCCNC(=O)COCCOCCNC(=O)CC[C@H](NC(=O)CC[C@H](NC(=O)CC[C@H](NC(=O)CCCCCCCCCCCCCCCCC(=O)O)C(=O)O)C(=O)O)C(=O)O)C(=O)N[C@H](C(N)=O)[C@@H](C)O)C(C)C` [Example 42, N^ε28-[2-[2-[2-[[2-[2-[2-[[(4S)-4-carboxy-4-[[(4S)-4-carboxy-4-[[(4S)-4-carboxy-4-(17-carboxyheptadecanoylamino)butanoyl]amino]butanoyl]amino]butanoyl]amino]ethoxy]ethoxy]acetyl]amino]ethoxy]ethoxy]acetyl]-[Aib2,Leu10,Glu15,Arg20,Glu21,Leu27,Lys28]-Glucagon amide] (H-H[Aib]QGTFTSDLSKYLESRRAREFVQWLLK([AEEA-AEEA-γGlu-γGlu-γGlu-C18 diacid])T-NH2; N-terminus assumed): the IC50 amounted to 38.2 nM.
To `CC(C)C[C@H](NC(=O)[C@H](Cc1ccc(O)cc1)NC(=O)[C@H](CCCCN)NC(=O)[C@H](CO)NC(=O)[C@H](CC(C)C)NC(=O)[C@H](CC(=O)O)NC(=O)[C@H](CO)NC(=O)[C@@H](NC(=O)[C@H](Cc1ccccc1)NC(=O)[C@@H](NC(=O)CNC(=O)[C@H](Cc1c[nH]cn1)NC(=O)C(C)(C)NC(=O)[C@@H](N)Cc1c[nH]cn1)[C@@H](C)O)[C@@H](C)O)C(=O)N[C@@H](CCC(=O)O)C(=O)N[C@@H](CO)C(=O)N[C@@H](CCCCN)C(=O)N[C@@H](CCCNC(=N)N)C(=O)N[C@@H](C)C(=O)N[C@@H](CCCNC(=N)N)C(=O)N[C@@H](CCC(=O)O)C(=O)N[C@@H](Cc1ccccc1)C(=O)N[C@H](C(=O)N[C@@H](CCC(N)=O)C(=O)N[C@@H](Cc1c[nH]c2ccccc12)C(=O)N[C@@H](CC(C)C)C(=O)N[C@@H](CC(C)C)C(=O)N[C@@H](CCCCNC(=O)CC[C@H](NC(=O)CC[C@H](NC(=O)CC[C@H](NC(=O)CCCCCCCCCCCCCCCCC(=O)O)C(=O)O)C(=O)O)C(=O)O)C(=O)N[C@H](C(N)=O)[C@@H](C)O)C(C)C` [Example 34, N^ε28-[(4S)-4-carboxy-4-[[(4S)-4-carboxy-4-[[(4S)-4-carboxy-4-(17-carboxyheptadecanoylamino)butanoyl]amino]butanoyl]amino]butanoyl]-[Aib2,His3,Leu10,Glu15,Lys17,Arg20,Glu21,Leu27,Lys28]-Glucagon amide] (H-H[Aib]HGTFTSDLSKYLESKRAREFVQWLLK([γGlu-γGlu-γGlu-C18 diacid])T-NH2; N-terminus assumed) belongs 0.2 nM.
To `CC(C)C[C@H](NC(=O)[C@H](Cc1ccc(O)cc1)NC(=O)[C@H](CCCCN)NC(=O)[C@H](CO)NC(=O)[C@H](CC(C)C)NC(=O)[C@H](CC(=O)O)NC(=O)[C@H](CO)NC(=O)[C@@H](NC(=O)[C@H](Cc1ccccc1)NC(=O)[C@@H](NC(=O)CNC(=O)[C@H](CCC(N)=O)NC(=O)C(C)(C)NC(=O)[C@@H](N)Cc1c[nH]cn1)[C@@H](C)O)[C@@H](C)O)C(=O)N[C@@H](CCC(=O)O)C(=O)N[C@@H](CO)C(=O)N[C@@H](CCCNC(=N)N)C(=O)N[C@@H](CCCNC(=N)N)C(=O)N[C@@H](C)C(=O)N[C@@H](CCCNC(=N)N)C(=O)N[C@@H](CCC(=O)O)C(=O)N[C@@H](Cc1ccccc1)C(=O)N[C@H](C(=O)N[C@@H](CCC(N)=O)C(=O)N[C@@H](Cc1c[nH]c2ccccc12)C(=O)N[C@@H](CC(C)C)C(=O)N[C@@H](CC(C)C)C(=O)N[C@@H](CCCCNC(=O)CC[C@H](NC(=O)CC[C@H](NC(=O)COCCOCCNC(=O)COCCOCCNC(=O)CC[C@H](NC(=O)CC[C@H](NC(=O)CCCCCCCCCCCCCCCCC(=O)O)C(=O)O)C(=O)O)C(=O)O)C(=O)O)C(=O)N[C@H](C(N)=O)[C@@H](C)O)C(C)C` [Example 60, N^ε28-[(4S)-4-carboxy-4-[[(4S)-4-carboxy-4-[[2-[2-[2-[[2-[2-[2-[[(4S)-4-carboxy-4-[[(4S)-4-carboxy-4-(17-carboxyheptadecanoylamino)butanoyl]amino]butanoyl]amino]ethoxy]ethoxy]acetyl]amino]ethoxy]ethoxy]acetyl]amino]butanoyl]amino]butanoyl]-[Aib2,Leu10,Glu15,Arg20,Glu21,Leu27,Lys28]-Glucagon amide] (H-H[Aib]QGTFTSDLSKYLESRRAREFVQWLLK([γGlu-γGlu-AEEA-AEEA-γGlu-γGlu-C18 diacid])T-NH2; N-terminus assumed) belongs 4 nM; to `CC(C)C[C@H](NC(=O)[C@H](CC(=O)O)NC(=O)[C@H](CC(C)C)NC(=O)[C@H](Cc1ccc(O)cc1)NC(=O)[C@H](CCCCN)NC(=O)[C@H](CO)NC(=O)[C@H](CC(C)C)NC(=O)[C@H](CC(=O)O)NC(=O)[C@H](CO)NC(=O)[C@@H](NC(=O)[C@H](Cc1ccccc1)NC(=O)[C@@H](NC(=O)CNC(=O)[C@H](CCC(N)=O)NC(=O)C1(NC(=O)[C@@H](N)Cc2c[nH]cn2)CCC1)[C@@H](C)O)[C@@H](C)O)C(=O)N[C@@H](CCCNC(=N)N)C(=O)N[C@@H](CCCNC(=N)N)C(=O)N[C@@H](C)C(=O)N[C@@H](CCCNC(=N)N)C(=O)N[C@@H](CCC(=O)O)C(=O)N[C@@H](Cc1ccccc1)C(=O)N[C@H](C(=O)N[C@@H](CCC(N)=O)C(=O)N[C@@H](Cc1c[nH]c2ccccc12)C(=O)N[C@@H](CC(C)C)C(=O)N[C@@H](CC(C)C)C(=O)N[C@@H](CCCCNC(=O)CC[C@H](NC(=O)CC[C@H](NC(=O)COCCOCCNC(=O)COCCOCCNC(=O)CC[C@H](NC(=O)CC[C@H](NC(=O)CCCCCCCCCCCCCCCCC(=O)O)C(=O)O)C(=O)O)C(=O)O)C(=O)O)C(=O)N[C@H](C(N)=O)[C@@H](C)O)C(C)C` [Example 49, N^ε28-[(4S)-4-carboxy-4-[[(4S)-4-carboxy-4-[[2-[2-[2-[[2-[2-[2-[[(4S)-4-carboxy-4-[[(4S)-4-carboxy-4-(17-carboxyheptadecanoylamino)butanoyl]amino]butanoyl]amino]ethoxy]ethoxy]acetyl]amino]ethoxy]ethoxy]acetyl]amino]butanoyl]amino]butanoyl]-[Acb2,Leu10,Leu16,Arg20,Glu21,Leu27,Lys28]-Glucagon amide] (H-H[Ac4c]QGTFTSDLSKYLDLRRAREFVQWLLK([γGlu-γGlu-AEEA-AEEA-γGlu-γGlu-C18 diacid])T-NH2; N-terminus assumed), 1.7 nM; to `CC(C)C[C@H](NC(=O)[C@H](Cc1ccc(O)cc1)NC(=O)[C@H](CCCCN)NC(=O)[C@H](CO)NC(=O)[C@H](CC(C)C)NC(=O)[C@H](CC(=O)O)NC(=O)[C@H](CO)NC(=O)[C@@H](NC(=O)[C@H](Cc1ccccc1)NC(=O)[C@@H](NC(=O)CNC(=O)[C@H](CCC(N)=O)NC(=O)C1(NC(=O)[C@@H](N)Cc2c[nH]cn2)CCC1)[C@@H](C)O)[C@@H](C)O)C(=O)N[C@@H](CCC(=O)O)C(=O)N[C@@H](CO)C(=O)N[C@@H](CCCNC(=N)N)C(=O)N[C@@H](CCCNC(=N)N)C(=O)N[C@@H](C)C(=O)N[C@@H](CCCNC(=N)N)C(=O)N[C@@H](CCC(=O)O)C(=O)N[C@@H](Cc1ccccc1)C(=O)N[C@H](C(=O)N[C@@H](CCC(N)=O)C(=O)N[C@@H](Cc1c[nH]c2ccccc12)C(=O)N[C@@H](CC(C)C)C(=O)N[C@@H](CC(C)C)C(=O)N[C@@H](CCCCNC(=O)CC[C@H](NC(=O)CC[C@H](NC(=O)COCCOCCNC(=O)COCCOCCNC(=O)CC[C@H](NC(=O)CC[C@H](NC(=O)CCCCCCCCCCCCCCCCC(=O)O)C(=O)O)C(=O)O)C(=O)O)C(=O)O)C(=O)N[C@H](C(N)=O)[C@@H](C)O)C(C)C` [Example 61, N^ε28-[(4S)-4-carboxy-4-[[(4S)-4-carboxy-4-[[2-[2-[2-[[2-[2-[2-[[(4S)-4-carboxy-4-[[(4S)-4-carboxy-4-(17-carboxyheptadecanoylamino)butanoyl]amino]butanoyl]amino]ethoxy]ethoxy]acetyl]amino]ethoxy]ethoxy]acetyl]amino]butanoyl]amino]butanoyl]-[Acb2,Leu10,Glu15,Arg20,Glu21,Leu27,Lys28]-Glucagon amide] (H-H[Ac4c]QGTFTSDLSKYLESRRAREFVQWLLK([γGlu-γGlu-AEEA-AEEA-γGlu-γGlu-C18 diacid])T-NH2; N-terminus assumed), 1.8 nM.

Source of the values: patent US9474790B2, “Stable, protracted GLP-1/glucagon receptor co-agonists for medical use” (Novo Nordisk A/S, priority 2013, dated 2016).
